{
  "source": "ChEMBL document CHEMBL1158381",
  "about": "“Molecular properties of psychopharmacological drugs determining non-competitive inhibition of 5-HT3A receptors” (Eur J Med Chem, 2009)",
  "data": [
    {"target": "T1, 5-hydroxytryptamine receptor 3A (Homo sapiens) (UniProt P46098)", "T1 sequence (whole entry)": "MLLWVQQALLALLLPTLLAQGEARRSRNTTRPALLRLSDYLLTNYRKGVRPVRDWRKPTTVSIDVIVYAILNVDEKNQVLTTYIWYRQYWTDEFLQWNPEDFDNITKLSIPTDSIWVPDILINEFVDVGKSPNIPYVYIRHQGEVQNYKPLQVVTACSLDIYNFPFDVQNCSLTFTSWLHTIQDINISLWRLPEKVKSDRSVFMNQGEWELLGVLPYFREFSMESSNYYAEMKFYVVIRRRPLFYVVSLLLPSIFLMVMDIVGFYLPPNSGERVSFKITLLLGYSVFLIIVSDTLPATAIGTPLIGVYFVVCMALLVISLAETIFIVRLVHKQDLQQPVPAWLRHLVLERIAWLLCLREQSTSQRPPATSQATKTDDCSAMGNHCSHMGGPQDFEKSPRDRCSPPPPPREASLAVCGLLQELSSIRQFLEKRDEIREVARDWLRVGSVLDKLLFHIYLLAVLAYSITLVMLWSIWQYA", "assay": "Antagonist activity at human 5HT3A receptor expressed in HEK293 cells assessed as inhibition of serotonin-induced inward Na+ current at >= 10 uM", "type": "functional, cell-based", "units": {"inhibition": "%"}, "values": [
      {"smiles": "c1ccc2c(c1)CCc1ccccc1N2", "inhibition": "> 50"},
      {"smiles": "FC(F)(F)c1ccc2c(c1)Nc1ccccc1S2", "inhibition": "< 50"},
      {"smiles": "c1ccc2c(c1)Nc1ccccc1S2", "inhibition": "< 50"},
      {"smiles": "OCCN1CCN(CCC=C2c3ccccc3Sc3ccc(C(F)(F)F)cc32)CC1", "inhibition": "> 50"},
      {"smiles": "Cc1nc2n(c(=O)c1CCN1CCC(c3noc4cc(F)ccc34)CC1)CCCC2", "inhibition": "< 50"},
      {"smiles": "CC(CN(C)C)CN1c2ccccc2CCc2ccccc21", "note": "(centres undefined)", "inhibition": "> 50"},
      {"smiles": "CNCCCN1c2ccccc2CCc2ccccc21", "inhibition": "> 50"},
      {"smiles": "O=C(CCCN1CCC(O)(c2ccc(Cl)cc2)CC1)c1ccc(F)cc1", "inhibition": "< 50"},
      {"smiles": "CCOc1ccccc1O[C@@H](c1ccccc1)[C@@H]1CNCCO1", "inhibition": "> 50"},
      {"smiles": "c1ccc2c(c1)CCc1ccccc1C2", "inhibition": "< 50"},
      {"smiles": "c1ccc2nc3ccccc3cc2c1", "inhibition": "< 50"},
      {"smiles": "CSc1ccc2c(c1)N(CCC1CCCCN1C)c1ccccc1S2", "note": "(centres undefined)", "inhibition": "> 50"},
      {"smiles": "OCCN1CCN(CCCN2c3ccccc3Sc3ccc(C(F)(F)F)cc32)CC1", "inhibition": "> 50"},
      {"smiles": "NC(=O)N1c2ccccc2C=Cc2ccccc21", "inhibition": "< 50"},
      {"smiles": "COc1ccc2c(c1)N(C[C@H](C)CN(C)C)c1ccccc1S2", "inhibition": "< 50"},
      {"smiles": "CN(C)CCCN1c2ccccc2CCc2ccccc21", "inhibition": "> 50"},
      {"smiles": "NC(=O)N1c2ccccc2CCc2ccccc21", "inhibition": "< 50"},
      {"smiles": "O=C(NCCN1CCOCC1)c1ccc(Cl)cc1", "inhibition": "< 50"},
      {"smiles": "CNCCC(Oc1ccc(C(F)(F)F)cc1)c1ccccc1", "note": "(centres undefined)", "inhibition": "> 50"}
    ]}
  ]
}
